# In ChEMBL document CHEMBL5380876, “Non-fused imidazole-biphenyl analogs repress triple-negative breast cancer growth by mainly stabilizing the c-MYC G-quadruplex via a multi-site binding mode” (Bioorg Med Chem, 2023):
# Active and inactive are the calls of the source. No cut-off for these calls is given here.
# Key:
# [1] = tested on: Quadruplex DNA; test: Stabilization of c-Myc G4 quadruplex DNA (unknown origin) assessed as temperature at which 50% protein unfold by circular dichroism melting assay; format: nucleic-acid assay
# [2] = tested on: HeLa; test: Cytotoxicity against human HeLa cells assessed as reduction in cell viability by CCK8 assay; format: functional, cell-based
# [3] = tested on: A549; test: Cytotoxicity against human A549 cells assessed as reduction in cell viability by CCK8 assay; format: functional, cell-based
# [4] = tested on: HCC1806; test: Cytotoxicity against human HCC1806 cells assessed as reduction in cell viability by CCK8 assay; format: functional, cell-based
# [5] = tested on: KYSE-30; test: Cytotoxicity against human KYSE-30 cells assessed as reduction in cell viability by CCK8 assay; format: functional, cell-based
# [6] = tested on: MDA-MB-231; test: Cytotoxicity against human MDA-MB-231 cells assessed as reduction in cell viability by CCK8 assay; format: functional, cell-based
# [7] = Cytotoxicity against human MCF-10A cells assessed as reduction in cell viability by CCK8 assay; format: toxicity, cell-based
# [8] = tested on: MDA-MB-231; test: Antitumor activity against human MDA-MB-231 cells xenografted in BALB/c nude mouse assessed as reduction in tumor weight at 2 mg/kg, ip administered every other day for 20 days and measured every 4 days; format: functional, organism-based; conditions: time 20.0 day
# [9] = Toxicity in BALB/c mouse xenografted with human MDA-MB-231 cells assessed as effect on body weight at 2 mg/kg, ip administered every other day for 20 days and measured every 4 days; format: organism-based; conditions: in vivo, 480 h, time 20 day
# [10] = tested on: Quadruplex DNA; test: Stabilization of c-Myc G4 quadruplex DNA (unknown origin) assessed as temperature at 50% protein unfold by circular dichroism melting assay; format: nucleic-acid assay
Structure (SMILES),T [1] [°C],T [10] [°C],IC50 [2] [µM],IC50 [3] [µM],IC50 [4] [µM],IC50 [5] [µM],IC50 [6] [µM],IC50 [7] [µM],Activity [8],Activity [9]
COc1cccc2c1C(=O)c1c(O)c3c(c(O)c1C2=O)C[C@@](O)(C(=O)CO)C[C@@H]3O[C@H]1C[C@H](N)[C@H](O)[C@H](C)O1 [DOXORUBICIN],,,,,,,,,Active,Toxic
CN1CCN(c2ccc(-c3nc(-c4ccc(-c5ccccn5)cc4)[nH]c3-c3ccc(N4CCN(C)CC4)cc3)cc2)CC1,34.4,,12.3,1.94,7.09,2.79,2.19,7.75,,
COc1ccccc1-c1ccc(-c2nc(-c3ccc(N4CCN(C)CC4)cc3)c(-c3ccc(N4CCN(C)CC4)cc3)[nH]2)cc1,23.5,,> 20,7.51,> 20,8.64,8.19,> 20,,
CN1CCN(c2ccc(-c3nc(-c4ccc(-c5ccccc5)cc4)[nH]c3-c3ccc(N4CCN(C)CC4)cc3)cc2)CC1,36.8,,8.92,2.51,5.68,3.86,3.69,9.23,,

# Further lines, with some results ahead:
T [1] [°C],T [10] [°C],Structure (SMILES),IC50 [2] [µM],IC50 [3] [µM],IC50 [4] [µM],IC50 [5] [µM],IC50 [6] [µM],IC50 [7] [µM],Activity [8],Activity [9]
29.6,,CN1CCN(c2ccc(-c3nc(-c4ccc(-c5ccccc5C(F)(F)F)cc4)[nH]c3-c3ccc(N4CCN(C)CC4)cc3)cc2)CC1,3.55,1.7,1.9,2.21,2.43,> 20,,
36.2,,COc1ccc(-c2ccc(-c3nc(-c4ccc(N5CCN(C)CC5)cc4)c(-c4ccc(N5CCN(C)CC5)cc4)[nH]3)cc2)cc1,5.49,2.42,3.74,2.5,2.69,9.69,,
,28.4,CN1CCN(c2ccc(-c3nc(-c4ccc(C(F)(F)F)cc4)[nH]c3-c3ccc(N4CCN(C)CC4)cc3)cc2)CC1,,,,,,,,
